Results from the supplement of paper PMC10883282.

Columns and labels:
Test in all cases: relative viability vs DMSO control (72 h) (fraction); higher = more viable cells
G401 = test system: G401
Procedure, shortened: (§1)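 Sarcoma cell lines were grown in 384-well plates seeded toward 80–90% confluence and exposed 24 h later to serially diluted compound. After 72 h at 37 °C and 5% CO2, with 0.1% DMSO vehicle and a 5 µM positive control on the plates, ATPLite was read. Relative viability, given as percent growth averaged over up to triplicate wells, was rescaled so that 1 is full and 0 is none.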

SW872 = test system: SW872
Procedure, shortened: as §1

HT1080 = test system: HT1080
Procedure, shortened: as §1

HS729 = test system: HS729
Procedure, shortened: as §1

RD-ES = test system: RD-ES
Procedure, shortened: as §1

SK-ES-1 = test system: SK-ES-1
Procedure, shortened: as §1

SW982 = test system: SW982
Procedure, shortened: as §1

KHOS-NP = test system: KHOS-NP
Procedure, shortened: as §1

SW684 = test system: SW684
Procedure, shortened: as §1

VA-ES-BJ = test system: VA-ES-BJ
Procedure, shortened: as §1

SK-LMS-1 = test system: SK-LMS-1
Procedure, shortened: as §1

A204 = test system: A204
Procedure, shortened: as §1

COc1cc2ncnc(Nc3cccc(Cl)c3F)c2cc1OC(=O)N1CCN(C)C[C@H]1C [AZD-3759]
Details | relative viability
A204, 0.00017 µM | 1.051
A204, 0.00051 µM | 1.1
A204, 0.00152 µM | 1.09
A204, 0.00457 µM | 1.08
A204, 0.01372 µM | 1.05
A204, 0.04115 µM | 1.08
A204, 0.1235 µM | 1.04
A204, 0.3704 µM | 1.04
A204, 1.111 µM | 1.03
A204, 3.333 µM | 0.954
A204, 10 µM | 0.883
G401, 0.00017 µM | 1.03
G401, 0.00051 µM | 1.06
G401, 0.00152 µM | 1.04
G401, 0.00457 µM | 1.01
G401, 0.01372 µM | 1.02
G401, 0.04115 µM | 1.02
G401, 0.1235 µM | 1.04
G401, 0.3704 µM | 1.04
G401, 1.111 µM | 1
G401, 3.333 µM | 0.985
G401, 10 µM | 0.939
HS729, 0.00017 µM | 1.05
HS729, 0.00051 µM | 0.958
HS729, 0.00152 µM | 0.934
HS729, 0.00457 µM | 0.971
HS729, 0.01372 µM | 0.966
HS729, 0.04115 µM | 0.875
HS729, 0.1235 µM | 0.94
HS729, 0.3704 µM | 0.878
HS729, 1.111 µM | 0.856
HS729, 3.333 µM | 0.812
HS729, 10 µM | 0.781
HT1080, 0.00017 µM | 1.06
HT1080, 0.00051 µM | 1.04
HT1080, 0.00152 µM | 1.02
HT1080, 0.00457 µM | 1.04
HT1080, 0.01372 µM | 1.03
HT1080, 0.04115 µM | 1.03
HT1080, 0.1235 µM | 1.01
HT1080, 0.3704 µM | 1.02
HT1080, 1.111 µM | 1.026
HT1080, 3.333 µM | 1
HT1080, 10 µM | 1.02
KHOS-NP, 0.00017 µM | 1.1
KHOS-NP, 0.00051 µM | 1.11
KHOS-NP, 0.00152 µM | 1.105
KHOS-NP, 0.00457 µM | 1.1
KHOS-NP, 0.01372 µM | 1.109
KHOS-NP, 0.04115 µM | 1.07
KHOS-NP, 0.1235 µM | 1.09
KHOS-NP, 0.3704 µM | 1.04
KHOS-NP, 1.111 µM | 1.07
KHOS-NP, 3.333 µM | 0.998
KHOS-NP, 10 µM | 1.02
RD-ES, 0.00017 µM | 0.97
RD-ES, 0.00051 µM | 0.967
RD-ES, 0.00152 µM | 0.9816
RD-ES, 0.00457 µM | 0.977
RD-ES, 0.01372 µM | 0.983
RD-ES, 0.04115 µM | 0.991
RD-ES, 0.1235 µM | 0.9757
RD-ES, 0.3704 µM | 0.9684
RD-ES, 1.111 µM | 0.961
RD-ES, 3.333 µM | 0.948
RD-ES, 10 µM | 0.915
SK-ES-1, 0.00017 µM | 1.09
SK-ES-1, 0.00051 µM | 0.999
SK-ES-1, 0.00152 µM | 1.06
SK-ES-1, 0.00457 µM | 1.01
SK-ES-1, 0.01372 µM | 1.06
SK-ES-1, 0.04115 µM | 1.06
SK-ES-1, 0.1235 µM | 0.978
SK-ES-1, 0.3704 µM | 0.999
SK-ES-1, 1.111 µM | 1.02
SK-ES-1, 3.333 µM | 0.908
SK-ES-1, 10 µM | 0.83
SK-LMS-1, 0.00017 µM | 1.14
SK-LMS-1, 0.00051 µM | 1.12
SK-LMS-1, 0.00152 µM | 1.08
SK-LMS-1, 0.00457 µM | 1.09
SK-LMS-1, 0.01372 µM | 1.09
SK-LMS-1, 0.04115 µM | 1.09
SK-LMS-1, 0.1235 µM | 1.09
SK-LMS-1, 0.3704 µM | 1.088
SK-LMS-1, 1.111 µM | 1.07
SK-LMS-1, 3.333 µM | 1.02
SK-LMS-1, 10 µM | 1.05
SW684, 0.00017 µM | 1.14
SW684, 0.00051 µM | 1.16
SW684, 0.00152 µM | 1.16
SW684, 0.00457 µM | 1.13
SW684, 0.01372 µM | 1.15
SW684, 0.04115 µM | 1.12
SW684, 0.1235 µM | 1.11
SW684, 0.3704 µM | 1.14
SW684, 1.111 µM | 1.16
SW684, 3.333 µM | 1.1
SW684, 10 µM | 1.05
SW872, 0.00017 µM | 1.07
SW872, 0.00051 µM | 1.1
SW872, 0.00152 µM | 1.06
SW872, 0.00457 µM | 1.058
SW872, 0.01372 µM | 1.032
SW872, 0.04115 µM | 1.05
SW872, 0.1235 µM | 1.04
SW872, 0.3704 µM | 1.02
SW872, 1.111 µM | 1.04
SW872, 3.333 µM | 0.9635
SW872, 10 µM | 0.828
SW982, 0.00017 µM | 1.06
SW982, 0.00051 µM | 1.02
SW982, 0.00152 µM | 1.03
SW982, 0.00457 µM | 1.06
SW982, 0.01372 µM | 1.07
SW982, 0.04115 µM | 1.04
SW982, 0.1235 µM | 1.07
SW982, 0.3704 µM | 1.07
SW982, 1.111 µM | 1.01
SW982, 3.333 µM | 0.945
SW982, 10 µM | 0.889
VA-ES-BJ, 0.00017 µM | 1.03
VA-ES-BJ, 0.00051 µM | 1.05
VA-ES-BJ, 0.00152 µM | 1.04
VA-ES-BJ, 0.00457 µM | 1.02
VA-ES-BJ, 0.01372 µM | 1.02
VA-ES-BJ, 0.04115 µM | 0.992
VA-ES-BJ, 0.1235 µM | 0.986
VA-ES-BJ, 0.3704 µM | 0.949
VA-ES-BJ, 1.111 µM | 0.975
VA-ES-BJ, 3.333 µM | 0.972
VA-ES-BJ, 10 µM | 0.952
